In patent US20100145057A1, “NOVEL PRODRUGS” (SUN PHARMA ADVANCED RESEARCH COMPANY LTD., priority 2007, published 2010):
Like-named read-outs stand apart in the source and are kept apart here.

Assays:
mouse = settings: cited from earlier work
[1] = Comparative bioavailability: LC-MS determination of gabapentin in plasma after oral gabapentin or example 5; format: in vivo; settings: for dose dependence of bioavailability / absorption (in words): data of Table 1, 50 and 100 mg/kg p.o.; for AUC(0-t): po, t = 24 hrs, plasma
Protocol: (§1) The prodrugs compounds of the present invention, i.e. the compounds of formula-I release in-vivo the compounds of formula III. Two of the representative compounds of the present invention i.e. compound of example 5 and compound 15, were tested to determine the comparative bioavailability of the drug and the prodrug. The following method was employed for the determination of bioavailability of the test compound of example 5.
Liquid Chromatography Mass Spectrometric Method for the Determination of Gabapentin from Example 5 in Plasma.
Mobile phase: Prepare 2 mM ammonium acetate solution in milliQ water and adjust the pH to 3.0 with formic acid. Mix above buffer solution and acetonitrile in the ratio (30:70 v/v) and filter.
Column: Hypurity C18, 50×2.1 mm, 5μ; Column oven temperature: 40° C.; Flow rate: 0.25 ml/min; Injection volume: 10 μl; Run time: 2.0 min.; Retention time: Example 5: 1.0 min.; Gabapentin: 1.0 min.; Carbamazepine: 1.0 min.;
Mass Parameters: Spray Voltage: 3500 V; Sheath Gas Pressure: 35 ml/min; Capillary Temperature: 380° C.; Mode: Positive; Aux gas pressure: 10 ml/min
For Gabapentin Linearity Range: 200 ng-19600 ng/ml in mobile phase.
For example 5: Linearity Range: 50 ng 5000 ng/ml in mobile phase.
A 100 μl plasma sample and 5 μl of internal standard was taken in a micro centrifuge tube. Vortex for 20-30 sec. The test samples were loaded in preconditioned HLB cartridges. The cartridge was washed with 1 ml Milli-Q water the sample was eluted with 500 μl of mobile phase. The sample was centrifuged at 15000 rpm for 5 minutes and the supernatant was collected for analysis.
(§2) Table 1 and Table 2 below provide Dose-concentration data for the representative compounds 5 and compound 15 of the invention, which are prodrugs of gabapentin and baclofen respectively.

[2] = cited from earlier work
[3] = oral; cited from earlier work
[4] = Comparative bioavailability: baclofen plasma levels after oral baclofen or example 15; format: in vivo; settings: 20 ug/kg, baclofen dosed 20 mcg/kg p.o.
Protocol: as §1, §2

## O=C1CC2(CCCCC2)CN1 [corresponding lactam]
mouse
  LD50: 300 mg/kg

## NCC1(CC(=O)O)CCCCC1 [Gabapentin, 1-(aminomethyl)cyclohexaneacetic acid]
[1]
  dose dependence of bioavailability / absorption (in words): non-linear saturable absorption, with lower bioavailability at the higher dose
[1]; gabapentin dosed 50 mg/kg p.o.
  AUC(0-t): 85000 ng·h/mL
[1]; gabapentin dosed 100 mg/kg p.o.
  AUC(0-t): 99000 ng·h/mL
mouse
  LD50: > 8000 mg/kg
[2]; 900 mg/day oral
  oral bioavailability: approximately 60%
[2]; 1800 mg/day oral
  oral bioavailability: ~27%

## NC[C@H]1CC[C@H](C(=O)O)CC1 [Tranexamic acid, trans-4-(aminomethyl)cyclohexanecarboxylic acid]
[3]
  orally administered dose absorbed: 35-40%

## CCOC(=O)C(C)=NOC(=O)NCC1(CC(=O)O)CCCCC1 [Example 5, N-[(Ethyl oximinopropionate-2-yl)carbonyl]-1-aminomethyl cyclohexaneacetic acid]
[1]
  dose dependence of bioavailability / absorption (in words): dose-proportional bioavailability

## NCC(CC(=O)O)c1ccc(Cl)cc1 (centres unmarked) [Baclofen]
[4]
  Cmax: 3600 ng/mL
[4]; t = 24 hrs
  AUC(0-t): 15000 ng·h/mL
